Source: patent publication US8048918B2, “Treatment of hyperproliferative diseases” (Vampex Limited, priority 2000, dated 2011)
Where no end group is shown, it is not given here.

Tests used:
[1] = test system: hyperproliferative psoriatic keratinocytes; assay: differentiation assay (K1/K10 mRNA, Northern blot / RT-PCR) on hyperproliferative psoriatic keratinocytes; assay type: cell-based, human; conditions: peptides 6 μM, Ca2+ 1.2 mM, RBP 0.6 μM
Description: RNA extraction is carried out according to the manufacturers instructions using the RNeasy kit (QIAGEN). 20 μg of RNA for each treatment was separated on a 1.2% agarose (1.8% formaldehyde) gel and transferred onto a nylon membrane (Zeta probe GT membranes, BioRad) by capillary transfer. The RNA is fixed to the membrane by UV crosslinking. DNA probes for the differentiation markers K1 and K10(50 ng) are labelled with [α-^32P] dCTP using the Prime-It RmT Primer labeling kit (Stratagene) following the manufacturer's instructions. Unincorporated nucleotides are removed by elution through a Microspin G25 column (Pharmacia Biotech). The blots are wetted in 0.25M sodium phosphate (pH 7.2)/7% SDS for 30 minutes at 65° C. Fresh hybridisation solution is added along with the radiolabelled probe and the blot is hybridised overnight at 65° C.
The blot is washed for 2×5 minutes in 0.25M sodium phosphate (pH 7.2), 7% SDS and then for 2×5 minutes in 20 mM sodium phosphate (pH 7.2), 5% SDS at 65° C. The wash steps are repeated until a clear distinction can be made between the signal and non-specific background. The blot is exposed to x-ray film for 24 hours before developing.
Synthesis of mRNA for the K1 and K10 keratin (markers for commitment to terminal differentiation) is examined by quantitative reverse transcription PCR (RT-PCR). Synthesis of mRNA for Cyclin D (a marker for cell proliferation) is also assayed by RT-PCR. Standard protocol for RT-PCR is followed as recommended by the manufacturer of the PCR machine (PE 2400) using 1 μg RNA from each keratinocyte culture. Suitable primers for RT-PCR are designed based on the human sequences of K1 and K10 deposited in GenBank. Northern blots are also performed: cells are harvested, RNA extracted and 20 μg RNA loaded into each well of a formaldehyde/agarose gel. The RNA is blotted onto a nylon membrane by capillary transfer and expression of K1 mRNA is determined by Northern hybridisation with a radiolabelled DNA probe.
Next, hyperproliferative epidermal keratinocytes are obtained, isolated and cultured as described above in Example 3. Hyperproliferative psoriatic keratinocytes are cultured as described above in serum-free medium with or without the addition of […] human retinol binding protein. At confluence the cells are treated (see Table 3 below) for 96 hours with peptides to 6 μM (medium replaced after 48 hours). Treatments shown in the Table 3 are for duplicate T-25 flasks (2×7 ml for each treatment).
The final concentrations are: Ca^2+ 1.2 mM, RBP 0.6 μM, peptides 6 μM.
Expression of K1 and K10 markers is determined as described above in Example 4. […]
Synthesis of mRNA for markers of proliferation and differentiation is also examined by semi-quantitative reverse transcription PCR (RT-PCR). […]

COS-7 cells = assay: proliferation assay of COS-7 cells (Coulter counter); assay type: cell-based; conditions: P142 1 mg/ml, peptides 6 μM; 24 and 48 hours after treatment; FIG. 8
Description: […] (COS1 and COS7) are purchased from the European Cell Culture Collection, thawed and propagated according to the instructions from the supplier; cells are cultured essentially in the same manner as for normal human keratinocytes (Example 3 above), except that cells are seeded at 20 000 cells/cm^2, with only one treatment with antibody P142, control immunoglobulin, peptide 589, peptide 592 or control peptide 24 hrs after seeding.
Proliferation is assayed by counting cells in a Coulter counter, as described above.

[2] = test system: human dermal fibroblast cells; assay: proliferation assay of human dermal fibroblast cells; assay type: cell-based; conditions: P142 1 mg/ml, peptides 6 μM; 24 hours and 4 days after treatment; FIG. 9
Description: Fibroblast cell culture is performed essentially as described for culture of hyperproliferative psoriatic keratinocytes (Example 3), except that following irrigation with complete culture medium, the dermal portion is incubated with 1 mg/ml of collagenase (Sigma) in 20 ml DMEM in a 50 ml centrifuge tube for 16 hours at 37° C. Then 20 ml DMEM containing 5% foetal calf serum and 1% antibiotic/antimycotic solution (Gibco) is added and the cells seeded at 37° C. in DMEM medium+additions at a density of 2500 cells/cm^2 in a 25 cm^2 cell culture flask. Medium is replaced every 48 hours and cells passaged when confluent.
Fibroblast cell culture and experiments are performed essentially as described for culture of hyperproliferative psoriatic keratinocytes (above), except that following irrigation with complete culture medium, the dermal portion is processed further. Reference is made to fibroblast culture protocols set out above.
Proliferation of cells is assayed by direct cell counting essentially as for determination of proliferation in keratinocyte cell cultures. RDH, ADH, RalDH inhibitors are found to reduce proliferation.

RalDHII = molecular target: T1, RalDHII (Rattus norvegicus, UniProt Q63639); conditions: Penzes et al. 1997; Chen and Juchau 1997; cited from earlier work
T1 sequence (Q63639 1-518): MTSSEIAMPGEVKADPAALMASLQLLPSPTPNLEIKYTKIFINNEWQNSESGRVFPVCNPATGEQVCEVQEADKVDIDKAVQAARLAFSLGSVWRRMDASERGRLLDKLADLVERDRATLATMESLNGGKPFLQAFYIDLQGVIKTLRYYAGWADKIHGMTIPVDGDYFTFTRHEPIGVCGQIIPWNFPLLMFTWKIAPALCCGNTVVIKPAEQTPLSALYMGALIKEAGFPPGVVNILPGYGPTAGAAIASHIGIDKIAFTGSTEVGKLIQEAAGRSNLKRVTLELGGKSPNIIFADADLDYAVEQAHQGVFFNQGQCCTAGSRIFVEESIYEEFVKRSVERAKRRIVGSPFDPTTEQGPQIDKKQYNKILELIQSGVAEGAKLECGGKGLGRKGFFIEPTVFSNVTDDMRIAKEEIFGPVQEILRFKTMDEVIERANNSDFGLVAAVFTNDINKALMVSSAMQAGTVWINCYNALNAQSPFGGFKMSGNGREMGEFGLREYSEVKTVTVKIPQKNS

retinol dehydrogenase = conditions: Boerman and Napoli, Biochemistry 34:7027-37, 1995; cited from earlier work

In the case of GRVRLLNNWDVCA, the “differentiation (expression of K1 and K10 markers)” value [1] is reported as “enhances the expression of K1 and K10 markers”, the “differentiation (expression of K1 and K10 markers)” value ([1]; listed as peptide 389) is reported as “reversed” and the “proliferation of Cos-7 cells (cell numbers)” value (COS-7 cells) is reported as “marked reduction in proliferation”. For the same compound, the “fibroblast proliferation (cell numbers)” value [2] was “greater reduction in proliferation”.
For `CC(C)=CCCC(C)=CC=O` [Citral, 3,7-dimethyl-2,6-octadienal], the IC50 (RalDHII) is given as 12 µM.
In the case of `CC1(C)[C@@H](OC(=O)CCC(=O)O)CC[C@]2(C)[C@H]3C(=O)C=C4[C@@H]5C[C@@](C)(C(=O)O)CC[C@]5(C)CC[C@@]4(C)[C@]3(C)CC[C@@H]12` [Carbenoxolone], the IC50 (retinol dehydrogenase) is given as 55 µM.
